Source: article PMC12677652, “Procyanidin B3 and Its Derivatives Alleviate Neuronal Injury by Targeting G3BP1 for Ischemic Stroke Therapy” (Advanced Science, 2025)
Read-outs that look alike come from different tables or passages of the source.

Experiments:
[1] = test system: tMCAO mice; assay: tMCAO model in mice (neurological deficit score, infarct volume, apoptosis, SG level); format: in vivo; conditions: for SG levels in the ischemic cortex / ischemic brain tissue: 48 mg kg^−1, i.p.
Experimental: Mice were kept anesthetized during surgery with 1% pentobarbital sodium (50 mg kg^−1, Sigma‐Aldrich, USA) by i.p. injection. Transient ischemia was induced by using the suture occlusion technique according to our previous studies.^[ [10] ^] Expose the common carotid artery area, insert a 6–0 sized silicon rubber‐coated filament into the left internal carotid artery until it reaches the approximate branch of the left middle cerebral artery, and leave it for 1–1.5 h to block blood flow. Then, the suture and the filament were removed, and the wounds were sutured. 24 h after the operation, a series of phenotypic evaluations was conducted on each mouse. The Bederson score was applied according to our previous studies.^[ [10] ^]
Apoptosis level was evaluated by TUNEL staining and flow cytometry. For TUNEL staining, HT22 cells were treated with 4% paraformaldehyde for 15 min. Then the fixed brain tissue slices and HT22 cells were permeabilized for 5 min using 1% Triton X‐100 (Sigma‐Aldrich, USA) dissolved in PBS. TUNEL staining was executed by following the instructions, using a one‐step TUNEL apoptosis assay kit (Meilunbio, China). Red fluorescence was utilized to identify apoptotic cells, while 4′, 6‐diamidino‐2‐phenylindole (DAPI) was used to counterstain the nuclei. The fluorescence microscope (Carl Zeiss, Germany) was used to obtain images. For flow cytometry, apoptotic cells were determined with the Annexin V‐Alexa Fluor 488/PI apoptosis detection kit (Yeasen, China) by following the instructions. EDTA‐free trypsin (Gibco, USA) was added to HT22 cells (2.5 × 10^5 cells). The cells were collected and washed with pre‐cooling PBS 2 times, then suspended in 250 µL 1× binding buffer. 100 µL cell suspension was dyed with 5 µL Annexin V‐Alexa Fluor 488 and 10 µL PI and plunged into darkness at room temperature for 15 min. Then the cell suspension was mixed with 400 µL of 1× binding buffer. Cell apoptosis was immediately determined by Cytek Aurora (Cytek Biosciences, USA).
Cells and tissues were homogenized in RIPA buffer (Beyotime, China) containing protease inhibitors (Biovision, USA) on ice for 30 min. After centrifugation (13000 r min^−1, 4 °C) for 10 min, the resulting supernatant was collected. The protein concentrations were determined by a BCA protein assay kit (Thermo Scientific, USA). After separating a 10% sodium dodecyl sulfate (SDS)‐polyacrylamide gel, protein on the gel was then transferred onto nitrocellulose membranes (Merck, USA), which were blocked with 5% bovine serum albumin for 1 h to prevent non‐specific binding. Then, the anti‐caspase 3 antibody (catalog no. 9662, Cell Signaling Technology, USA), anti‐Bcl‐2 antibody (catalog no. GTX100064, GeneTex, USA), anti‐G3BP1 antibody (catalog no. 66486‐1‐Ig, Proteintech, China), anti‐β‐tubulin antibody (catalog no. 66240‐1‐Ig, Proteintech, China), and anti‐β‐actin antibody (catalog no. 66009‐1‐Ig, Proteintech, China) were used for treating the membrane overnight at 4 °C. Bound antibodies were detected with the species‐appropriate horseradish peroxidase‐labeled secondary antibody (Jackson ImmunoResearch, USA) using ECL reagents (ShareBio, China). Protein‐specific signals were detected using a Bio‐Rad Imager (Bio‐Rad, USA), and the bands were quantified by densitometric analysis software (ImageJ). β‐tubulin or β‐actin was used as a loading control.
Cerebral infarction volume was evaluated by Nissl staining or 2,3,5‐triphenyltetrazolium chloride staining. The infarct volume was computed using image‐processing software (Image J), and the percentage of the infarct volume was calculated according to our previous studies.^[ [10] ^] For Nissl staining, the fixed brain tissue slices were washed twice with ultrapure water for 2 min each time. Next, they were stained with Nissl staining solution (Beyotime, China) at 37 °C for 10 min, washed twice with ultrapure water, washed once with 95% ethanol, and washed twice with 70% ethanol. […]

[2] = Brain and plasma concentrations after MCAO/reperfusion (BBB assessment); format: in vivo, mice; conditions: C57BL/6, mouse, ip, 0.5 h after administration, 48 mg kg^−1 i.p., after 1.5 h of MCAO followed by reperfusion; for Kp at 0.5 h: brain / plasma, read-out: CBrain/Cplasma
Experimental: After 1.5 h of MCAO followed by reperfusion, each of 1 and 6c was administered at a dose of 48 mg kg^−1 intraperitoneally to mice, and the brain and plasma concentrations of each compound were measured at 0.5 h after administration. The ratios of brain to plasma concentrations of 1 and 6c were 0.37 and 0.57, respectively, confirming that the BBB permeability of compounds benefited from higher lipophilicity (Table 2 ). The decrease in 6c concentration in vivo may be due to changes in metabolic routes. Tertiary carbon atoms and terminal carbon atoms are easily metabolized through oxidative pathways,^[ [55] ^] so the introduction of isopropyl groups leads to the production of more metabolites, resulting in a decrease in the area under curve (AUC). The metabolites of oligomeric proanthocyanidins and their analogues are quite complex. Although there are a large number of metabolites, most of them have a flavan‐3‐ol core structure and contain many phenolic hydroxyl groups.^[ [56] ^] As mentioned above, phenolic hydroxyl groups are important active functional groups to exert neuroprotective effects, so it can be inferred that metabolites of 6c also have similar activity to 6c. In future work, radiolabeled pharmacokinetic studies and metabolite studies are needed to further elucidate the metabolism of the preferred compound.^[ [57] ^] Pharmacokinetic analyses were performed using a LC‐40D XS HPLC system (Shimadzu, Japan) coupled with a Sciex Triple Quad 5500 mass spectrometer (AB SCIEX, USA). Tested compounds PB3 and 6c were administered by i.p. injection (48 mg kg^−1, formulation solvent: normal saline). Blood samples were drawn from the retro‐orbital vein at 0.083, 0.25, 0.5, 1, 2, 4, 8, and 24 h post‐injection with EDTA dipotassium salt as an anticoagulant. Subsequently, the plasma fractions were collected in Eppendorf tubes and centrifuged at 4000 g for 5 min at 4 °C and stored at −80 °C for analysis. Brain tissue was mixed with four‐fold normal saline for homogenization (10 s per time with a 10 s interval for 3–5 times). Then, the mixture was centrifuged at 4000 g for 5 min at 4 °C, and the supernatant was stored at −80 °C for analysis. For sample preparation, the desired serial concentrations of working solutions were achieved by diluting a stock solution of analyte with 50% methanol in water solution. 2 µL of working solutions were added to 10 µL of the blank C57BL/6 mouse plasma/brain homogenate to achieve calibration standards of 10–10 000 ng mL^−1 (10, 20, 100, 200, 1000, 2000, 4000, 10 000 ng mL^−1) in a total volume of 12 µL. Three quality control samples at 20 ng mL^−1, 1600 ng mL^−1, and 8000 ng mL^−1 for plasma were prepared independently of those used for the calibration curves. These QC samples were prepared on the day of analysis in the same way as calibration standards.

[3] = 48 mg kg^−1 i.p., compared to the model group

Structure (SMILES) | SG levels in the ischemic cortex / ischemic brain tissue [1] | neurological deficit score ([1]; 48 mg kg^−1 i.p., 1.5 h MCAO, 24 h after reperfusion) | infarct volume ([1]; 48 mg kg^−1 i.p., 1.5 h MCAO, 24 h reperfusion, Nissl staining) | apoptosis level (TUNEL staining of frozen brain sections) [1, 3] | expression level of Bcl‐2 in the ischemic cortex [1, 3] | expression level of cleaved caspase‐3 in the ischemic cortex [1, 3] | Kp at 0.5 h [2] | concentration at 0.5 h ([2]; brain, read-out: CBrain) | concentration at 0.5 h ([2]; plasma, read-out: Cplasma) | neuroprotective activity compared with the model group ([1]; 48 mg kg^−1, 1.5 h of MCAO and 24 h of reperfusion) | reduction of infarct volume ([1]; 1 h ischemia, i.p. injection after reperfusion, 24 h after reperfusion) | neurological deficit score ([1]; 1 h ischemia, i.p. injection after reperfusion, 24 h after reperfusion, preliminary screening) | infarct area and neurological function at different doses ([1]; 1.5 h of MCAO and 24 h of reperfusion)
Oc1cc(O)c2c(c1)O[C@H](c1ccc(O)c(O)c1)[C@@H](O)[C@@H]2c1c(O)cc(O)c2c1O[C@H](c1ccc(O)c(O)c1)[C@@H](O)C2 [Compound 1, procyanidin B3] | significantly enhanced SG levels | improved neurological deficits | significantly reduced | significantly reduced | increased | decreased | 0.37 | 4790 ± 1610 ng/g | 13000 ± 757 ng/mL |  |  |  | 
CC(C)c1c(O)cc(O)c2c1O[C@H](c1ccc(O)c(O)c1)[C@@H](O)[C@@H]2c1c(O)cc(O)c2c1O[C@H](c1ccc(O)c(O)c1)[C@@H](O)C2 [Compound 6c, 8‐Isopropyl‐(+)‐Catechin‐(4α,8)‐(+)‐Catechin] | mediate SG upregulation |  |  |  |  |  | 0.57 | 2810 ± 489 ng/g | 4960 ± 1590 ng/mL | best neuroprotective activity | ≈ 30% | more pronounced trend toward improving neurological deficits | therapeutic effect on ischemic injury in a dose‐dependent manner
